Source: patent US9067989B2, “Eotaxin-2 (CCL24) inhibitors in inflammatory, autoimmune, and cardiovascular disorders” (THE MEDICAL RESEARCH, INFRASTRUCTURE, AND HEALTH SERVICES …, priority 2009, dated 2015)

Tested on: adjuvant induced arthritis
Test: Adjuvant induced arthritis in Lewis rats
Format: in vivo, rat
Conditions: D8 100 μg 3x/week, methotrexate 0.25 mg/kg once weekly, from day 3, compared to PBS
Protocol: Adjuvant arthritis was induced in Lewis rats (six-week-old male Lewis rats obtained from Harlan, Israel) by injection of […]. […] was prepared by suspending heat-killed Mycobacterium Tuberculosis (Difco, Detroit, Mich.) in mineral oil at 10 mg/ml. Rats were injected intradermally with 100 μl adjuvant at the base of the tail. Arthritis developed by day 10 post injection.
Rats (8 per group) were treated by intraperitoneal (IP) injection with 3 monoclonal antibodies against eotaxin-2, (G7, G8, D8) 3×/week. Controls were treated with total mouse (non specific) IgG or PBS. Injections were started on the third day after adjuvant administration and were performed three times a week until the rats were sacrificed. […]
Arthritis severity was evaluated by measuring body weight, paw swelling, arthritic score and whole animal mobility. […]
Body weight in grams was measured every other day as an indicator of systemic inflammation.
Evaluation of Paw swelling. Ankle and wrist diameter in mm (to one place after the decimal point) were recorded three times a week using a caliper. […]
Finger and toe swelling was recorded according to their partial contribution: Ankles (feet): each toe scored 0.2; Wrist: each finger scored 0.25 Sum of all joints was calculated.
Whole animal Mobility was scored between 0-4, according to the following definitions: […]

SMILES: CN(Cc1cnc2nc(N)nc(N)c2n1)c1ccc(C(=O)N[C@@H](CCC(=O)O)C(=O)O)cc1 [methotrexate]
- protection against development of arthritis (arthritic score), prevention mode: significant, comparable protection
- protection against development of arthritis (arthritic score), prevention mode (listed as MTX): statistically significant effect (p<0.05)
